Test results taken from the supplement of paper PMC10307832.

Columns and labels:
Assay in all cases: relative viability (nuclei count vs DMSO), 5 days (fraction); higher = more cells survive
[1] = compound: Cc1ccc(C(=O)N(CCCN)[C@@H](c2nc3cc(Cl)ccc3c(=O)n2Cc2ccccc2)C(C)C)cc1 [Ispinesib] + O=C(c1cc(Cc2n[nH]c(=O)c3ccccc23)ccc1F)N1CCN(C(=O)C2CC2)CC1 [Olaparib] (partner 8 µM)
Outline: (§1)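 Relative viability equals treated-well nuclei counts divided by vehicle-well nuclei counts. Counts came from 4× images of lung cancer cell lines grown in 1536-well plates for 5 days after pin-tool dosing on the day after seeding. Dosing used one drug alone or a fixed anchor-drug dose plus five library-drug doses (not always all listed) in √10 steps, and values are medians of duplicate plates.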

[2] = compound: Cc1ccc(C(=O)N(CCCN)[C@@H](c2nc3cc(Cl)ccc3c(=O)n2Cc2ccccc2)C(C)C)cc1 [Ispinesib] + CC(=O)c1c(C)c2cnc(Nc3ccc(N4CCNCC4)cn3)nc2n(C2CCCC2)c1=O [Palbociclib] (partner 0.5 µM)
Outline: as §1

[3] = compound: C[C@]1(O)C[C@@H](c2nc(-c3ccc4ccc(-c5ccccc5)nc4c3)c3c(N)nccn32)C1 [Linsitinib] + CS(=O)(=O)N1CCN(Cc2cc3nc(-c4cccc5[nH]ncc45)nc(N4CCOCC4)c3s2)CC1 [Pictilisib] (partner 1 µM)
Outline: as §1

[4] = compound: Cc1ccc(C(=O)N(CCCN)[C@@H](c2nc3cc(Cl)ccc3c(=O)n2Cc2ccccc2)C(C)C)cc1 [Ispinesib] + Cc1nc(Nc2ncc(C(=O)Nc3c(C)cccc3Cl)s2)cc(N2CCN(CCO)CC2)n1 [Dasatinib] (partner 0.075 µM)
Outline: as §1

Cell Line | relative viability ([1]; first compound 0.001 µM) | relative viability ([1]; first compound 0.003162 µM) | relative viability ([1]; first compound 0.01 µM) | relative viability ([1]; first compound 0.03162 µM) | relative viability ([1]; first compound 0.1 µM) | relative viability ([2]; first compound 0.001 µM) | relative viability ([2]; first compound 0.003162 µM) | relative viability ([2]; first compound 0.01 µM) | relative viability ([2]; first compound 0.03162 µM) | relative viability ([2]; first compound 0.1 µM) | relative viability ([3]; first compound 0.01 µM) | relative viability ([3]; first compound 0.03162 µM) | relative viability ([3]; first compound 0.1 µM) | relative viability ([3]; first compound 0.3162 µM) | relative viability ([3]; first compound 1 µM) | relative viability ([4]; first compound 0.001 µM) | relative viability ([4]; first compound 0.003162 µM) | relative viability ([4]; first compound 0.01 µM) | relative viability ([4]; first compound 0.03162 µM) | relative viability ([4]; first compound 0.1 µM)
NCI-H2228 | 0.857 | 0.717 | 0.543 | 0.418 | 0.327 | 1 | 1.05 | 1.08 | 0.544 | 0.386 | 0.425 | 0.382 | 0.28 | 0.239 | 0.27 | 0.557 | 0.522 | 0.665 | 0.211 | 0.2
NCI-H2347 | 0.504 | 0.692 | 0.592 | 0.559 | 0.525 | 0.406 | 0.388 | 0.423 | 0.395 | 0.419 | 0.802 | 0.609 | 0.597 | 0.695 | 0.717 | 0.285 | 0.209 | 0.289 | 0.284 | 0.282
NCI-H2405 | 0.992 | 0.942 | 0.801 | 0.853 | 0.556 | 0.546 | 0.555 | 0.512 | 0.479 | 0.397 | 0.428 | 0.329 | 0.43 | 0.69 | 0.332 | 0.208 | 0.223 | 0.656 | 0.184 | 0.247
NCI-H3122 | 0.674 | 0.683 | 0.743 | 0.615 | 0.524 | 0.221 | 0.216 | 0.216 | 0.202 | 0.157 | 0.601 | 0.58 | 0.572 | 0.499 | 0.399 | 0.944 | 0.917 | 0.973 | 0.759 | 0.127
PC-3 [JPC-3] | 1.23 | 1.31 | 0.887 | 1.12 | 0.541 | 0.533 | 0.55 | 0.548 | 0.553 | 0.395 | 0.804 | 0.777 | 0.665 | 0.517 | 0.52 | 1.11 | 1.06 | 1.14 | 0.868 | 0.578
PC-14 | 0.27 | 0.141 | 0.0942 | 0.0729 | 0.144 | 0.493 | 0.439 | 0.134 | 0.0579 | 0.152 | 0.691 | 0.701 | 0.75 | 0.598 | 0.5 | 0.221 | 0.188 | 0.0739 | 0.0649 | 0.133
RERF-LC-KJ | 0.934 | 0.791 | 0.427 | 0.22 | 0.328 | 1.11 | 1.03 | 0.935 | 0.68 | 0.583 | 0.593 | 0.55 | 0.538 | 0.44 | 0.429 | 0.835 | 0.697 | 0.448 | 0.281 | 0.391
SK-LU-1 | 0.606 | 0.449 | 0.393 | 0.435 | 0.356 | 0.323 | 0.412 | 0.379 | 0.312 | 0.325 | 0.54 | 0.548 | 0.706 | – | 0.592 | 0.173 | 0.173 | 0.173 | 0.144 | 0.112
SK-MES-1 | 0.762 | 0.788 | 0.648 | 0.201 | 0.228 | 0.277 | 0.345 | 0.319 | 0.154 | 0.224 | 0.357 | 0.377 | 0.32 | 0.293 | 0.339 | 0.326 | 0.373 | 0.384 | 0.165 | 0.231
SW 1573 | 0.541 | 0.421 | 0.447 | 0.142 | 0.185 | 0.385 | 0.404 | 0.32 | 0.18 | 0.218 | 0.453 | 0.571 | 0.471 | 0.433 | 0.425 | 0.529 | 0.426 | 0.721 | 0.122 | 0.153
